Experimental data published in patent publication US10981932B2, “Macrocyclic indole derivatives” (Bayer Aktiengesellschaft, priority 2016, dated 2021).
Where a name gives a salt, the structure may show the parent alone. Read-outs that look alike come from different tables or passages of the source.

Experiments:
Format in all cases: cell-based
NCI-H1703 = assay: Anti-proliferative effect (CellTiter-Glo, 72 h), NCI-H1703; conditions: Homo sapiens, NCI-H1703 cells, median, read-out: IC50 antiproliferation assay NCI-H1703 [M] (median)
Protocol: (§1) The impact of compounds on the proliferation of different cell lines was assessed using the CellTiter-Glo® Luminescent Cell Viability reagent from Promega (G7573). Of note, SUDHL10 and SUDHL5 (DLBCL), NCI-H929 (Multiple Myeloma), A2780 (ovarian carcinoma) as well as MV-4-11(AML) cells are sensitive to MCL-1 inhibition.
(§2) In parallel, cells were plated in a reference (day 0) plate for time zero determination.
(§3) Rim wells were excluded. The cells were incubated for 72 h hours in a humidified incubator at 37° C. The day 0 plate was measured by adding 30 μl/well of CTG solution (CellTiter-Glo® Luminescent Cell Viability reagent, Promega G7573) to time zero wells in the reference plate followed by a 10 minutes incubation and luminescence reading at 0.1 ms, using the PHERAstar FS microplate reader (BMG Labtech).
(§4) After 72 h incubation, the treated plates were measured in the same way as the day 0 plate mentioned above.

OPM2 = assay: Anti-proliferative effect (CellTiter-Glo, 72 h), OPM2; conditions: OPM2 cells, median, read-out: IC50 antiproliferation assay OPM2 [M] (median)
Procedure, shortened: (§5)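 Luminescence from CellTiter-Glo, read 10 min after reagent addition, reports viable cell content after 72 h of compound treatment at 37 °C. A reference plate read at day 0 gives the starting baseline.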

SK-MEL-2 = assay: Anti-proliferative effect (CellTiter-Glo, 72 h), SK-MEL-2; conditions: Homo sapiens, SK-MEL-2 cells, median, read-out: IC50 antiproliferation assay SK-MEL-2 [M] (median)
Protocol: Assessment of the Anti-Proliferative Effect of Compounds in Different Cell Lines
as §1, §2, §3, §4

MV-4-11 = assay: Anti-proliferative effect (CellTiter-Glo, 72 h), MV-4-11; conditions: MV-4-11 cells, median, read-out: IC50 antiproliferation assay MV-4-11 [M] (median)
Procedure, shortened: as §5

SMILES | IC50 (NCI-H1703) [M] | IC50 (SK-MEL-2) [M] | IC50 (MV-4-11; Homo sapiens, MV4-11, 72 h) [M] | IC50 (MV-4-11) [M] | IC50 (OPM2) [M] | IC50 (OPM2; Homo sapiens, OPM-2, 72 h) [M]
CN1CCCn2c(C(=O)O)c(CCCOc3cccc4ccccc34)c3cccc(c32)-c2c(COc3ccc(N4CCN(S(=O)(=O)N(C)C)CC4)cc3)nn(C)c2C1 (single isomer, unassigned; enantiomer 1) [Example 1-15, (+)-11-({4-[4-(dimethylsulfamoyl)piperazin-1-yl]phenoxy}methyl)-7,9-dimethyl-1-[3-(naphthalen-1-yloxy)propyl]-4,5,6,7,8,9-hexahydropyrazolo[3′,4′:7,8][1,5]diazecino[9,10,1-hi]indole-2-carboxylic Acid (Enantiomer 1)] | 1.1e-05 | > 3.3e-05 | 3.52e-06 | – | 1.91e-06 | –
CCc1c2c(nn1C)CN(C)CCCn1c(C(=O)O)c(CCCOc3cccc4ccccc34)c3ccc(C)c-2c31 (single isomer, unassigned; enantiomer 1) [Example 145, 11-Ethyl-7,10,12-trimethyl-1-[3-(1-naphthyloxy)propyl]-4,5,6,7,8,10-hexahydropyrazolo[3′,4′:7,8][1,5]diazecino[9,10,1-hi]indole-2-carboxylic acid-N-ethylethanamine Salt (Enantiomer 1)] | 6.53e-06 | 1.17e-05 | 4.3e-06 | – | – | 3.22e-06
Cn1nc(COc2ccc(N3CCN(S(C)(=O)=O)CC3)cc2)c2c1COCCCCn1c(C(=O)O)c(CCCOc3cccc4ccccc34)c3cccc-2c31 (single isomer, unassigned; enantiomer 2) [Example 1-10, 1-methyl-3-({4-[4-(methylsulfonyl)piperazin-1-yl]phenoxy}methyl)-7-[3-(naphthalen-1-yloxy)propyl]-1,10,11,12,13,15-hexahydropyrazolo[4′,3′:9,10][1,6]oxazacycloundecino[8,7,6-hi]indole-8-carboxylic acid (enantiomer 2)] | 5.52e-06 | 1.12e-05 | – | 2.29e-06 | 2.81e-06 | –
Cn1nc(COc2ccc(N3CCN(S(=O)(=O)C4CC4)CC3)cc2)c2c1COCCCCn1c(C(=O)O)c(CCCOc3cccc4ccccc34)c3cccc-2c31 (single isomer, unassigned; enantiomer 2) [Example 1-13, 3-({4-[4-(cyclopropylsulfonyl)piperazin-1-yl]phenoxy}methyl)-1-methyl-7-[3-(naphthalen-1-yloxy)propyl]-1,10,11,12,13,15-hexahydropyrazolo[4′,3′:9,10][1,6]oxazacycloundecino[8,7,6-hi]indole-8-carboxylic Acid (Enantiomer 2)] | 2.67e-06 | 4.96e-06 | – | 1.35e-06 | 6.34e-07 | –

Second part, led by results:

IC50 (NCI-H1703) [M] | IC50 (SK-MEL-2) [M] | IC50 (MV-4-11; Homo sapiens, MV4-11, 72 h) [M] | IC50 (MV-4-11) [M] | SMILES | IC50 (OPM2) [M] | IC50 (OPM2; Homo sapiens, OPM-2, 72 h) [M]
9.36e-06 | 2.67e-05 | 9.73e-07 | – | CCc1c2c(nn1C)COCCCCn1c(C(=O)O)c(CCCOc3cccc4ccccc34)c3cccc-2c31 (single isomer, unassigned; enantiomer 1) [Example 148, 3-Ethyl-2-methyl-7-[3-(1-naphthyloxy)propyl]-2,10,11,12,13,15-hexahydropyrazolo[4′,3′:9,10][1,6]oxazacycloundecino[8,7,6-hi]indole-8-carboxylic acid-N-ethylethanamine Salt (Enantiomer 1)] | – | 2.74e-06
6.84e-06 | 1.84e-05 | 1.36e-06 | – | CCc1c2c(nn1C)COCCCCn1c(C(=O)O)c(CCCOc3cccc4ccccc34)c3ccc(C)c-2c31 (single isomer, unassigned; enantiomer 1) [Example 154, 3-Ethyl-2,4-dimethyl-7-[3-(1-naphthyloxy)propyl]-2,10,11,12,13,15-hexahydropyrazolo[4′,3′:9,10][1,6]oxazacycloundecino[8,7,6-hi]indole-8-carboxylic acid-N-ethylethanamine Salt (Enantiomer 1)] | – | 2e-06
